Assay results taken from patent publication US20140140951A1, “D-Alanine Ester of Rp-Nucleoside Analog” (priority 2012, published 2014).
pEC50: −log10 of the molar value.

How the values were obtained:
[1] = Stability in intestinal microsomes; type: in vitro ADME, human; conditions: 10 μM, 1.0 mg/mL protein, NADPH, 60 min
Protocol: (§1) Stability of test compounds was determined in subcellular fractions (microsomes and S9) of human liver and intestine in duplicate for each matrix. Pooled liver and intestinal microsomal, intestinal and liver S9 proteins (1.0 mg/mL), suspended in incubation buffer (100 mM potassium phosphate, pH 7.4, 5 mM MgCl2, and 0.1 mM EDTA), were preincubated for 5 min at 37° C. with 10 μM of a test compound from a 10 mM stock solution in DMSO (final DMSO concentration was 0.1%); the reaction was initiated by the addition of NADPH (3 mM final concentration). At specific times (0 and 60 min), 0.1 mL samples were taken and the reaction terminated by the addition of 4 volumes of stop solution (acetonitrile with 500 ng/mL carbutamide as an internal standard). The samples were vortexed for 30 sec and then centrifuged at 16,000 g for 10 min. Aliquots of supernatants (100 μL each) were transferred to 96 deep-well plates preloaded with 100 μL distilled water and analyzed after mixing by LC-MS/MS. The MS peak area ratio of the test compound versus the internal standard was calculated and percent unchanged test compound over 60 minutes was calculated using this ratio.

[2] = Cytotoxicity evaluation (CellTiter-Blue cell viability); type: cell-based; conditions: human, Zluc cells (HCV replicon cells)
Protocol: For cytotoxicity evaluation, Zluc cells were treated with compound as described herein, and cell viability was monitored using the CellTiter-Blue Cell Viability Assay (Promega) by adding 20 μL of the assay solution to each well. The plates were then incubated at 37° C./5% CO2 for at least 3 hours. Fluorescence was detected in plates using excitation and emission wavelengths of 531 and 595 nm, respectively, in a Victor^3 V 1420 multilabel counter (Perkin Elmer) and CC50 values were determined using Microsoft Excel and XLfit 5.2 software.

HCV genotype 1b replicon = test: HCV replicon assay (luciferase reporter); type: cell-based; conditions: Hepatitis C virus; Zluc (Huh-7-derived) cells, 72 hours
Protocol: Huh-7-derived cell line (Zluc) that harbors an HCV genotype 1b replicon and a luciferase reporter gene was grown in Dulbecco's Modified Eagle Medium (DMEM) supplemented with 10% fetal bovine serum, 2 mM GlutaMAX, 1% MEM nonessential amino acids, 100 IU/mL penicillin, 100 μg/mL streptomycin, and 0.5 mg/mL Geneticin® (G418). For dose response testing the cells were seeded in 96-well plates at 7.5×10^3 cells per well in a volume of 50 μL, and incubated at 37° C./5% CO2. Drug solutions were made up freshly in Huh-7 media as 2× stocks. […] were prepared from these stocks in DMEM without G418. At least three hours after Zluc cells were seeded, drug treatment was initiated by adding 50 μL of drug dilutions to the plates in duplicate. Final concentrations of drug ranged from 100 μM to 0.0000512 μM. Cells were then incubated at 37° C./5% CO2. […] For this, media was removed from the plates via gentle tapping. Fifty microliters of ONE-glo luciferase assay reagent was added to each well. The plates were shaken gently for 3 min at room temperature and luminescence was measured on a Victor^3 V 1420 multilabel counter (Perkin Elmer) with a 1 second read time using a 700 nm cut-off filter. The EC50 values were calculated from dose response curves from the resulting best-fit equations determined by Microsoft Excel and XLfit 5.2 software. […]

[3] = Liver pharmacokinetics (triphosphate) following a single oral dose in CD-1 mice; type: in vivo; conditions: single oral dose 10 mg/kg for I or 25 mg/kg for II in PEG 200, CD-1 male mice
Protocol: Liver samples were analyzed for the active species 2′-methyl-2′-fluorouridine triphosphate (2′-Me-2′-F—U TP) by LC-MS/MS. […] Internal standard solution was added to the homogenate followed by neutralization with 20% ammonium hydroxide solution and addition of 500 μL 1% formic acid. The tissue samples were extracted by weak anion exchange solid phase extraction (SPE). Post extraction, the eluates were evaporated under nitrogen, followed by reconstitution before injection onto the LC-MS/MS system. […] The calibration range was 10 to 10000 pmol/mL in mouse liver homogenate (50 to 50000 pmol/g of mouse liver).

[4] = Stability in liver microsomes; type: in vitro ADME, human; conditions: 10 μM, 1.0 mg/mL protein, NADPH, 60 min
Protocol: as §1

Row | Compound | Stability (percent remaining) HIM (1 hr) [1] | CC50 at 72 h [2] [µM] | pEC50 (HCV genotype 1b replicon) | Ms Liver 2′-Me-2′-F-U TP AUC (pmol · hr/g at 1 μmol/kg) [3] | Stability (percent remaining) HLM (1 hr) [4]
1 | CC(C)OC(=O)[C@@H](C)N[P@@](=O)(OC[C@H]1O[C@@H](n2ccc(=O)[nH]c2=O)[C@](C)(F)[C@@H]1O)Oc1ccccc1 [Compound (Ia), D-Alanine, N—((RP,2′R)-2′-deoxy-2′-fluoro-2′-methyl-P-phenyl-5′-uridylyl)-, 1-methylethyl ester] | +++++ (80% < +++++) | > 50 | < 5.00 | +++++ (1600 < +++++) | ++++ (60% < ++++ ≦ 80%)
2 | CC(C)OC(=O)[C@@H](C)N[P@](=O)(OC[C@H]1O[C@@H](n2ccc(=O)[nH]c2=O)[C@](C)(F)[C@@H]1O)Oc1ccccc1 [Compound (Ib)] | +++++ (80% < +++++) | > 50 | < 5.00 | +++ (400 < +++ ≦ 1000) | +++++ (80% < +++++)
